Source: patent US20110144194A1, “CHROMENONE DERIVATIVES USEFUL FOR THE TREATMENT OF NEURODEGENERATIVE DISEASES” (priority 2008, published 2011)
“Also recorded” adds a separate entry of the source.

Columns and labels:
[1] = tested on: microglial cells; assay: Nitrite quantification by Griess method in LPS-activated microglial cells; type: cell-based; settings: test compound at 1 μM; 10 ng/ml LPS; medium collected after 48 h; control 0.1% DMSO; read-out: % of NO/control
Description: (§1) The experiments that were carried out concern the ability of these molecules to inhibit the liberation of nitrites and Tumor Necrosis Factor-alpha (TNF-α) in the activated microglia. NO and TNF-α production are two common parameters related to inflammatory processes.
To evaluate the nitrite production, microglial cells were cultured in DMEM-F12 medium containing 2% heat-inactivated FBS in 48 well plates at a density of 20000 cells per well. Peripheral wells of the plate were discarded. After 72 h, 400 μL out of 500 μL medium was replaced by 350 μL fresh medium. The cells were treated with each molecule to be tested by adding 50 μL of a 10× solution to obtain a final concentration ranging from 0.1 μM to 1 μM. Each treatment was done in duplicates. 10 ng/ml LPS was added after 1 hour and the medium was collected after 48 h and stored at −20° C. until analysis. To quantify the NO production, nitrites were measured using Griess reactive (sulfanilamide 1%, Sigma; N-(1-Naphthyl)ethylenediamine 0.1%, Sigma; phosphoric acid 2.5%). Briefly, 100 μL of medium was placed into a 96 well plate and 100 μL of Griess reactive was added. After […] incubation at RT in the dark, the OD was measured at 550 nm.
The ability of each test compound to decrease the production of nitrite is presented as a percent decrease in OD with respect to the absorbance of the control condition i.e. 0.1% DMSO.

[2] = tested on: microglial cells; assay: TNF-α quantification by ELISA in supernatant of microglial cells; type: cell-based; settings: test compound at 1 μM; medium collected 48 h after treatment; control 0.1% DMSO
Description: as §1
To quantify the presence of TNF-α in the supernatant of microglial cells, the medium was collected 48 h after treatment as described above. The ELISA 96 well plate was incubated overnight with the capture antibody (0.8 μg/ml, R&D). 10 μl of each sample was diluted with 90 μL of incubation buffer (PBS-BSA 1%, pH 7.2-7.4) and the plate was incubated for 2 h at RT. The plate was washed 3 times and incubated for 2 h with the detection antibody (150 ng/mL, R&D). […] After […] incubation at RT, the reaction was stopped with an equal volume of a 10% solution of sulfuric acid and the OD was measured at 450 nm.
The ability of each test compound to decrease the production of TNF-α is presented as a percent decrease in OD with respect to the absorbance of the control condition i.e. 0.1% DMSO.

[3] = tested on: NSCs derived neurospheres; assay: Differentiation of NSCs to neurons: real-time PCR of Hes5 and Mash1 in neurospheres (Notch signaling); type: cell-based, mouse; settings: 1 μM, vs 0.1% DMSO vehicle, β-actin internal control
Description: The NSCs derived neurospheres culture was established from embryonic mouse cortices. Neurospheres were maintained in Neurobasal-A medium supplemented with B27 w/o retinoic acid, 2 mM Glutamine, 20 ng/ml EGF and antibiotics. The neurospheres were dissociated using a non enzymatic dissociation medium (Invitrogen) and the single cell suspension added to a flask with fresh medium. To differentiate the neurospheres into neurons, oligodendrocytes and astrocytes, 3 to 4 days old neurospheres were cultured in poly-ornithine treated 35 mm dishes. Cells were treated with test compounds (1 μM) or 0.1% DMSO vehicle as control in Neurobasal-A medium supplemented with B27 w/o retinoic acid, 2 mM Glutamine, antibiotics, 2 ng/ml EGF and 0.5% of heat inactivated FBS. RNA extraction was performed after 24 hours of incubation and gene expression was analyzed by real-time PCR.
The primer pairs for mouse Mash1, Hes5 and beta-actin were designed with the beacon designer software (premierbiosoft).
Notch signaling controls a wide variety of cell fate decisions, including the differentiation of NSCs during neurogenesis [Artavanis-Tsakonas, S. et al., Science, 1999, 284, 770]. […] Notch activation induces the expression of the downstream effectors Hes1 and Hes5, which down-regulate gene transcription of b-HLH transcription factors such as Mash1. Therefore, we tested whether compounds of general Formula (I) and (II) could modulate Notch signalling in NSCs. […] Inhibition of the Hes5 gene expression in the treated cultures was further correlated with an increase of Mash1 transcripts, a b-HLH factor involved in neuronal specification and differentiation [Ito, H. et al., J Neurosci Res. 2003, 71, 648].
FIG. 2: Compound A and B induces NSCs differentiation into neurons. Real-time PCR gene expression analysis in neurospheres. RNA extraction was performed after […] of incubation with compound A and B (1 μM) or with 0.1% DMSO vehicle as control.

[4] = tested on: SH-SY5Y neuroblastoma cell line; assay: Differentiation of human neuroblastoma cell line SH-SY5Y into neurons: real-time PCR of Hash1 and Notch1; type: cell-based; settings: 1 μM, 24 hours; vs 0.1% DMSO vehicle; β-actin internal control
Description: SH-SY5Y cells were cultured in 6 well plates at a density of 500000 cells per well and was maintained in DMEM with 10% FBS. After 24 h, the cells were treated with test compounds (1 μM) or 0.1% DMSO vehicle as control. RNA extraction was performed after 24 hours of incubation and gene expression was analyzed by real-time PCR.
The specific primer pairs directed against human Hash1, Notch1 and beta-actin are from the online database qprimerdepot (http://primerdepot.nci.nih.gov/).
The human homolog of Mash1, Hash1, is expressed in neuroblastoma cell lines. […] 2001, 36,132]. Therefore, we tested whether compounds of general Formula (I) and (II) could induce the differentiation of SH-SY5Y neuroblastoma cell line by modulating the gene expression of Hash1 and Notch1.
FIG. 3: Compound A and B induces neuroblastoma differentiation into a neuronal phenotype. Real-time PCR gene expression analysis in SH-SY5Y neuroblastoma cell line. RNA extraction was performed after 24 hours of incubation with compound A and B (1 μM) or with 0.1% DMSO vehicle as control.

[5] = tested on: microglial cell line; assay: Real-time PCR gene expression analysis in microglial cell line with or without LPS activation; type: cell-based; settings: 1 μM, 3 hours incubation, with or without LPS 0.01 μg/ml; normalized to β-actin
Description: To evaluate mRNA expression levels, total RNA was extracted using invisorb
RNA extraction kit (Invitek). The concentration was determined by reading the OD at 260 nm. Retro-transcription was performed using Im-Prom-II™ Reverse Transcription System (Promega) with 1 μg of total RNA.
The reaction mixture contained 12.5 μl 2× SYBR Green mastermix (Biorad), 1 μl cDNA, 1 μl of each primer (12.5 μM) and 9.5 μl of H2O. The real-time PCR amplification was controlled by the MyIQ5 system (Biorad). After activation of the enzyme at 94° C. for […], the amplification was done by cycling 40 times between a denaturation step at 94° C. and the annealing step at 54.5° C. Gene expression was analyzed using the provided software and normalized to beta-actin expression.
FIG. 1: Compound B inhibits microglial activation in vitro. Real-time PCR gene expression analysis in microglial cell line. RNA extraction was performed after 3 hours of incubation with compound B (1 μM), with or without LPS activation (0.01 μg/ml).

For `COc1cc(-c2oc3cc(O)c(CCCCCCCCCCCCCO)cc3c(=O)c2O)ccc1O`, the activity at 1 µM [1] was 98.2 ± 1%.
With `COc1ccc(-c2oc3ccc(CCCCCCCCCCCCO)cc3c(=O)c2O)cc1OC` the activity at 1 µM [1] was 87.7 ± 7.7%.
`COc1cc(-c2oc3ccc(CCCCCCCCCCCCCO)cc3c(=O)c2OC)ccc1O` gave an activity at 1 µM [1] of 95.3 ± 4.8%.
For `COc1cc(-c2oc3ccc(CCCCCCCCCCCO)cc3c(=O)c2O)ccc1O` [drawing 38], the “% of TNF-α/control” value [2] was 69.2 ± 3.9%.
For `COc1cc(-c2oc3ccc(CCCCCCCCCCCCCO)cc3c(=O)c2O)ccc1O` [drawing 40], the “% of TNF-α/control” value [2] was 77.2 ± 9.4%.
In the case of `COc1c(CCCCCCCCCCCCCO)c(O)cc2oc(-c3ccc(O)c(O)c3)c(O)c(=O)c12`, the activity at 1 µM [1] is reported as 91.5 ± 2.6%.
`CCCCCCCCCCCCCc1ccc2oc(-c3ccc(O)c(OC)c3)c(O)c(=O)c2c1` [drawing 35] was tested, and the activity at 1 µM [1] was 85 ± 0.9%.
Work on `COc1cc(-c2oc3ccc(CCCCCCCCCCCCCCO)cc3c(=O)c2O)ccc1O` [drawing 19] yielded an activity at 1 µM [1] of 77.5 ± 3.9%.
For `O=c1c(O)c(-c2ccc(O)c(O)c2)oc2ccc(CCCCCCCCCCCCCO)cc12`, the activity at 1 µM [1] was 86.3 ± 4.2%.
Work on `COc1cc(-c2oc3cc(O)c(CCCCCCCCCCCCCO)c(OC)c3c(=O)c2O)ccc1O` yielded an activity at 1 µM [1] of 96.6 ± 4.2%.
In the case of `COc1cc(-c2oc3ccc(CCCCCCCCCCCCO)cc3c(=O)c2O)ccc1O` [Compound A, 3-hydroxy-2-(4-hydroxy-3-methoxyphenyl)-6-(12-hydroxydodecyl)-4H-chromen-4-one], the Hes5 gene expression [3] is reported as “decrease”, the Mash1 transcripts [3] is reported as “increase; also recorded: significantly increased” and the Hash1 transcripts [4] is reported as “inhibit; also recorded: significantly decreased”. The Notch1 transcripts [4] was “inhibit; also recorded: significantly decreased”.
Work on `COc1cc(-c2cc(=O)c3cc(CCCCCCCCCCCCCO)ccc3o2)ccc1O` yielded an activity at 1 µM [1] of 102 ± 3.8%.
Compound `COc1cc(-c2oc3ccc(CCCCCCCCCCCO)cc3c(=O)c2O)ccc1O` [drawing 16] has an activity at 1 µM [1] of 72 ± 3%.
For `O=c1c(O)c(-c2ccc(O)c(O)c2)oc2cc(O)c(CCCCCCCCCCCCO)c(O)c12`, the activity at 1 µM [1] was 81.6 ± 4%.
`COc1cc(-c2oc3ccc(CCCCCCCCCCCCO)cc3c(=O)c2O)ccc1O` [drawing 17] gave an activity at 1 µM [1] of 61.1 ± 3.1%.
`O=c1c(O)c(-c2ccc(O)c(O)c2)oc2ccc(CCCCCCCCCCCCO)cc12` showed an activity at 1 µM [1] of 84.5 ± 5.9%.
Work on `COc1cc(-c2oc3cc(O)c4cc(CCCCCCCCCCCCO)oc4c3c(=O)c2O)ccc1O` yielded an activity at 1 µM [1] of 112 ± 8%.
Work on `COc1cc(-c2oc3cc(O)c(CCCCCCCCCCCCCO)c(O)c3c(=O)c2O)ccc1O` yielded an activity at 1 µM [1] of 109 ± 10.5%.
For `COc1cc(-c2oc3ccc(CCCCCCCCCCCCCCO)cc3c(=O)c2O)ccc1O` [drawing 41], the “% of TNF-α/control” value [2] was 75.4 ± 17.2%.
`COc1cc(-c2oc3ccc(CCCCCCCCCCCCCO)cc3c(=O)c2O)ccc1O` [drawing 18, 3-hydroxy-2-(4-hydroxy-3-methoxyphenyl)-6-(13-hydroxytridecyl)-4H-chromen-4-one] gave an activity at 1 µM [1] of 59.8 ± 2.1%.
`CCCCCCCCCCCCCc1ccc2oc(-c3ccc(O)c(OC)c3)c(O)c(=O)c2c1` [drawing 42] was tested, and the “% of TNF-α/control” value [2] was 91.2 ± 7.9%.
`COc1cc(-c2oc3cc(O)c(CCCCCCCCCCCCO)cc3c(=O)c2O)ccc1O` showed an activity at 1 µM [1] of 90.3 ± 3.9%.
In the case of `COc1cc(-c2oc3ccc(CCCCCCCCCCCCCO)cc3c(=O)c2O)ccc1O` [Compound B, 3-hydroxy-2-(4-hydroxy-3-methoxyphenyl)-6-(13-hydroxytridecyl)-4H-chromen-4-one], the “Expression of transcripts (iNOS, TNF-α gene expression) in treated microglial cells” value [5] is reported as “significantly decreased”, the Hes5 gene expression [3] is reported as “decrease” and the Mash1 transcripts [3] is reported as “increase; also recorded: significantly increased”. The Hash1 transcripts [4] was “inhibit; also recorded: significantly decreased” and the Notch1 transcripts [4] was “inhibit; also recorded: significantly decreased”.
Compound `COc1c(CCCCCCCCCCCCO)c(O)cc2oc(-c3ccc(O)c(O)c3)c(O)c(=O)c12` has an activity at 1 µM [1] of 112 ± 1.7%.
Compound `O=c1c(O)c(-c2ccc(O)c(O)c2)oc2cc(O)c(CCCCCCCCCCCCCO)c(O)c12` has an activity at 1 µM [1] of 82.4 ± 6.3%.
Work on `COc1cc(-c2oc3cc(O)c(CCCCCCCCCCCCO)c(O)c3c(=O)c2O)ccc1O` yielded an activity at 1 µM [1] of 99.6 ± 1.5%.
`COc1cc(-c2oc3cc(O)c(CCCCCCCCCCCCO)c(OC)c3c(=O)c2O)ccc1O` showed an activity at 1 µM [1] of 97.6 ± 6.9%.
With `COc1ccc(-c2oc3ccc(CCCCCCCCCCCCCO)cc3c(=O)c2O)cc1O` the activity at 1 µM [1] was 103 ± 4%.
Compound `O=c1c(O)c(-c2ccc(O)c(O)c2)oc2cc(O)c3cc(CCCCCCCCCCCCO)oc3c12` has an activity at 1 µM [1] of 112 ± 9.2%.
`COc1ccc(-c2oc3ccc(CCCCCCCCCCCCCO)cc3c(=O)c2O)cc1OC` was tested, and the activity at 1 µM [1] was 89 ± 7.6%.
